Results taken from article PMC3545992, “Trisubstituted Pyrazolopyrimidines as Novel Angiogenesis Inhibitors” (PLoS ONE, 2013).

Experiments:
Cdk2 = test system: Cdk2; parameters: method as in Jorda et al. [23]; conditions: ref Jorda et al. [23]; cited from earlier work
Cdk5 = test system: Cdk5; parameters: method as in Jorda et al. [23]; conditions: ref Jorda et al. [23]; cited from earlier work
HMEC-1 cells = experiment: Microscopy / propidium iodide staining for cell death at proliferation-assay cell density; assay type: cell-based; conditions: 30 µM, 72 h
Description: A: HMEC-1 cells were seeded in the same density as for the proliferation assay and treated with the respective compound at 30 µM for 72 h to test whether reduced cell numbers in the proliferation assay are due to inhibition of proliferation or to excessive cell death. No increase of detached, obviously dead or propidium iodide positive cells was detected. B and C: Confluent layers of HUVECs were scratched and the cells were allowed to migrate for 16 h in the presence or absence of 10 µM of the compounds. B: The columns indicate the area re-covered by migrating cells (n = 3, mean ± SEM, * p<0.05, One Way ANOVA, Dunnett). C: Scratches at endpoint, representative images taken out of three experiments.
HMEC-1 were seeded into 96-well-plates (1,500 cells/well). After 24 h, the cells were stimulated with the indicated compounds. At the same time point, cells in a reference plate were stained with crystal violet, serving as initial cell number. After 72 hours of stimulation, cells were fixed and stained with crystal-violet solution for 10 minutes, washed with water, and air dried. Crystal violet was eluted with dissolving buffer and absorbance was measured at 550 nm (Tecan Sunrise Absorbance reader, TECAN, Crailsheim, Germany). […] Phase contrast and fluorescence images were obtained with an inverted Nikon microscope (Ti, Nikon, Düsseldorf, Germany) equipped with a 10x objective.

Aurora kinase A = molecular target: T1, Aurora kinase A (Homo sapiens, UniProt O14965); experiment: In vitro kinase profile (ProQinase); assay type: biochemical
T1 construct: purchased ProQinase (Freiburg, Germany)
T1 sequence (O14965 1-403): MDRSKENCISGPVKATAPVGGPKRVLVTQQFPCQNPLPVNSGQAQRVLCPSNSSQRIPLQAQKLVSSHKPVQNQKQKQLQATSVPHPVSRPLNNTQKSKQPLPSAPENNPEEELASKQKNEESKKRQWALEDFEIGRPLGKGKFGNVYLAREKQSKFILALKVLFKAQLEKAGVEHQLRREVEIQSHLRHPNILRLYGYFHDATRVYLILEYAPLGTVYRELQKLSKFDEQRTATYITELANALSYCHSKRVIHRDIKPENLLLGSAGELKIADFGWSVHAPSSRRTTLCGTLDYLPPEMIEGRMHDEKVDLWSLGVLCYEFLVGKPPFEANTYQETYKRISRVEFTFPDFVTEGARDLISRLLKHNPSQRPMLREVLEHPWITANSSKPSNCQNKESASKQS
Description: (§1) Therefore, it was of interest to see which kinases, especially which Cdks, are inhibited by those compounds. The kinase profiling was performed by ProQinase (Freiburg, Germany) for LGR 1406 and 1407. For LGR 1404 kinase profiling has recently been published previously. LGR 1406 and 1407 were tested for their IC50 in a panel of 24 kinases, including the Cdk1, Cdk2, Cdk4, Cdk5, Cdk6, Cdk7 and Cdk9. The other kinases tested were PTK6, EGFR, FAK, FGFR1 and FGFR2, NLK, PAK4, VEGFR1 and VEGFR2, MEK1, ROCK1, RAF1, ALK, RSK3, AURKA, and AMPKα1.

Cdk1/CycB = molecular target: T2, Cdk1/CycB (Homo sapiens, UniProt P06493); experiment: In vitro kinase profile (ProQinase); assay type: biochemical
T2 construct: purchased ProQinase (Freiburg, Germany)
Description: as §1

Cdk2/CycE = molecular target: T3, Cdk2/CycE (Homo sapiens, UniProt P24941); experiment: In vitro kinase profile (ProQinase); assay type: biochemical
T3 construct: purchased ProQinase (Freiburg, Germany)
Description: as §1

FAK = molecular target: T4, FAK (Homo sapiens, UniProt Q05397); experiment: In vitro kinase profile (ProQinase); assay type: biochemical
T4 construct: purchased ProQinase (Freiburg, Germany)
Description: as §1

PAK4 = molecular target: T5, PAK4 (Homo sapiens, UniProt O96013); experiment: In vitro kinase profile (ProQinase); assay type: biochemical
T5 construct: purchased ProQinase (Freiburg, Germany)
Description: as §1

RSK3 = molecular target: T6, RSK3 (Homo sapiens, UniProt Q15349); experiment: In vitro kinase profile (ProQinase); assay type: biochemical
T6 construct: purchased ProQinase (Freiburg, Germany)
Description: as §1

T2 sequence (P06493 whole entry): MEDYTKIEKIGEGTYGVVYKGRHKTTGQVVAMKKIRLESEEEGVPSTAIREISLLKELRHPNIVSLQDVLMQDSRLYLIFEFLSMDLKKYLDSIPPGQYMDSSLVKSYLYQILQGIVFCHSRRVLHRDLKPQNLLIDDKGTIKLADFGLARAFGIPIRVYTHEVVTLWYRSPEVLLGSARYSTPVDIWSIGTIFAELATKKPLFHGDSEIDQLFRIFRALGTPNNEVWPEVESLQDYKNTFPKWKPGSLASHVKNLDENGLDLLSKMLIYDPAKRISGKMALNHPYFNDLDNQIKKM
T2 sequence (P14635 whole entry partner): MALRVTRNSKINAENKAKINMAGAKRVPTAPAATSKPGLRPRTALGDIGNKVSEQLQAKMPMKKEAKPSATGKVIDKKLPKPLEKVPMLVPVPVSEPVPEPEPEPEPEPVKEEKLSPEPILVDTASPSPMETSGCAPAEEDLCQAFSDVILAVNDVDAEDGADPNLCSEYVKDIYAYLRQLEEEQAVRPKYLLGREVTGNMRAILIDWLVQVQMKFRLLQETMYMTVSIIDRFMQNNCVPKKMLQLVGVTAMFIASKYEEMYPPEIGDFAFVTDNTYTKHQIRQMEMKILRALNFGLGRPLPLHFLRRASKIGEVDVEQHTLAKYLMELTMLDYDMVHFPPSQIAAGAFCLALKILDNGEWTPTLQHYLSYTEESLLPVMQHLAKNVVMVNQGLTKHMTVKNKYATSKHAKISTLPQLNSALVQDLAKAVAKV
T6 sequence (Q15349 whole entry): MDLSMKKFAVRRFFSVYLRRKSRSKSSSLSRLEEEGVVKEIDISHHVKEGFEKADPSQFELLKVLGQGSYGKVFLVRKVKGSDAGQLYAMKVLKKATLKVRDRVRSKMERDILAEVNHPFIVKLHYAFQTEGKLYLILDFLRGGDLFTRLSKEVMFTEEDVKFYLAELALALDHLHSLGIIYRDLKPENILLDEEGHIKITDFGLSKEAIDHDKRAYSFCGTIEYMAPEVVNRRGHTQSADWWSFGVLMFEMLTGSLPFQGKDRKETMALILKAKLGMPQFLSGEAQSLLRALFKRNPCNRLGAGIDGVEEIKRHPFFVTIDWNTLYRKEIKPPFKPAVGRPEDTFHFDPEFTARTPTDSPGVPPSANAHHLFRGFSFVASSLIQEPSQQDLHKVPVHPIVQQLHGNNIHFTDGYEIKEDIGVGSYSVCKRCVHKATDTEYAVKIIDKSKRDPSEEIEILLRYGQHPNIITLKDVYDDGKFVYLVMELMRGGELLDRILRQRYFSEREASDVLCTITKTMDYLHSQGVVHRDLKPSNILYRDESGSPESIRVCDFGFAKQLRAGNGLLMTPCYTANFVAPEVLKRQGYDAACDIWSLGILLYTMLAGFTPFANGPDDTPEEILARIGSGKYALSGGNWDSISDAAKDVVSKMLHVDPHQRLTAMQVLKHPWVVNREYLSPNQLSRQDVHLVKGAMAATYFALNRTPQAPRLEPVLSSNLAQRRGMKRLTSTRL
T4 sequence (Q05397 whole entry): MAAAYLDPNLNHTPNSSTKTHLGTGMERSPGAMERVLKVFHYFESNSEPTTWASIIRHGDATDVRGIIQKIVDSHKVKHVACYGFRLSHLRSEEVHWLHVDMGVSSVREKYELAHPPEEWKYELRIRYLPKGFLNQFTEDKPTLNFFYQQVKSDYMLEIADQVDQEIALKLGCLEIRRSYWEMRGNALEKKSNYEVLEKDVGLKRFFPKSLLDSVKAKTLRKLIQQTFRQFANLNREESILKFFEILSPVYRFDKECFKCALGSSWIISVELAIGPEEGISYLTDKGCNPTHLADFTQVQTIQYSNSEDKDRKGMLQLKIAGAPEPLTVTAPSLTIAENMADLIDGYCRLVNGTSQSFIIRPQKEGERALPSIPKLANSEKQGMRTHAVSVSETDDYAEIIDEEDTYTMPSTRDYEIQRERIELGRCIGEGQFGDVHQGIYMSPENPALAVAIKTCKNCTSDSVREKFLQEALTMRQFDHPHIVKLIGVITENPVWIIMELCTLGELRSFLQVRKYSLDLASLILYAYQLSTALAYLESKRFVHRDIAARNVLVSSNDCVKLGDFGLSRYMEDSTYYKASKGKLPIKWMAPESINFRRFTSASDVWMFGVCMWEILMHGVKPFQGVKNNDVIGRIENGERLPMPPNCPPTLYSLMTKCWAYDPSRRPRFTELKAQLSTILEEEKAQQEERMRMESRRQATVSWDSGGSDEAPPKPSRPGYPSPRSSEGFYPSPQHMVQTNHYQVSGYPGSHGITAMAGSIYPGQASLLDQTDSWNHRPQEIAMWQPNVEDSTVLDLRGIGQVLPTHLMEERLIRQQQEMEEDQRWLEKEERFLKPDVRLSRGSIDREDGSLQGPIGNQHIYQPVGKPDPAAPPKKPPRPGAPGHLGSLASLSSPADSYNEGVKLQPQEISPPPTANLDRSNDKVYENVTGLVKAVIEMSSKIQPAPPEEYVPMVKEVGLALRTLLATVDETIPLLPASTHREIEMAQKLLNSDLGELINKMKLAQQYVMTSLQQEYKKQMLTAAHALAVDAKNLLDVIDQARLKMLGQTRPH
T5 sequence (O96013 whole entry): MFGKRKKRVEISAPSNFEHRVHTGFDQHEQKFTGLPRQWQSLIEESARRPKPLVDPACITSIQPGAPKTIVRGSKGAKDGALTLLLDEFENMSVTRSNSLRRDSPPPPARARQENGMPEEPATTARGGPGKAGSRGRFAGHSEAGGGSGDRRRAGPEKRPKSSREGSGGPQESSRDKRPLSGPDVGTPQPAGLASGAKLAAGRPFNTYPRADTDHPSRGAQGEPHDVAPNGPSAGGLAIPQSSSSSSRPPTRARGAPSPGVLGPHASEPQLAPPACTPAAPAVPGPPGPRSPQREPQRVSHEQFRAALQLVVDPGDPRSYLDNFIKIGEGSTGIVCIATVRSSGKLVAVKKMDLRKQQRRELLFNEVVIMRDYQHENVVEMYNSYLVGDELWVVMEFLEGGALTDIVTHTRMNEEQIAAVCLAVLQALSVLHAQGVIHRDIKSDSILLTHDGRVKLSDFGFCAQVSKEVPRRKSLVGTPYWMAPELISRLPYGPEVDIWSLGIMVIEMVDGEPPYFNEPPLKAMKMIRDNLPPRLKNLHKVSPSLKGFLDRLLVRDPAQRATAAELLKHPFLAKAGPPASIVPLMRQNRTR

| Structure (SMILES) | IC50 (Cdk2) [µM] | IC50 (Cdk5) [µM] | morphologically altered, dead or detached cells, loss of membrane integrity (propidium iodide) (HMEC-1 cells) | IC50 (Aurora kinase A) [µM] | IC50 (Cdk1/CycB) [µM] | IC50 (Cdk2/CycE) [µM] | IC50 (FAK) [µM] | IC50 (PAK4) [µM] | IC50 (RSK3) [µM] |
| --- | --- | --- | --- | --- | --- | --- | --- | --- | --- |
| CC[C@H](CO)Nc1nc(NCc2ccccc2)c2n[nH]c(C(C)C)c2n1 [LGR 1404, 7-Benzylamino-5(R)-[(1-hydroxymethyl)propylamino]-3-isopropyl-1(2)H-pyrazolo[4,3-d]pyrimidine] | 0.22 | 0.94 | – | – | – | – | – | – | – |
| CC(C)c1n[nH]c2c(NCc3ccccc3)nc(NC3CCCCC3N)nc12 (stereo not drawn) [LGR 1406, 5-[(2-E/Z-aminocyclohexyl)amino]-7-benzylamino-3-isopropyl-1(2)H-pyrazolo[4,3-d]pyrimidine] | – | – | no increase of morphologically altered, dead or detached cells, and no loss of membrane integrity | < 10 | 3.2 | 0.59 | < 10 | < 10 | < 10 |
| CC(C)c1n[nH]c2c(NCc3ccccc3)nc(NC3CCC(N)CC3)nc12 (stereo not drawn) [LGR 1407, 5-[(4-E-aminocyclohexyl)amino]-7-benzylamino-3-isopropyl-1(2)H-pyrazolo[4,3-d]pyrimidine] | – | – | – | ≤ 10 | 5.8 | 0.99 | – | – | – |
